Experimental data taken from patent publication US20240025899A1, “TRIHETEROCYCLIC DERIVATIVE, AND PHARMACEUTICAL COMPOSITION AND APPLICATION THEREOF” (SHANGHAI DE NOVO PHARMATECH CO., LTD., priority 2020, published 2024).
Where a name gives a salt, the structure may show the parent alone.

How the values were obtained:
[1] = tested on: LOVO human colon cancer cell line; assay: Cell proliferation assay (Cell titer glo); format: cell-based; conditions: LOVO cells, 72 hours
Procedure: In the present disclosure, cell assays were used to evaluate the biological activity of compounds. LOVO (Nanjing Cobioer), a human colon cancer cell line, was cultured in a Dulbecco's Modified Eagle's medium 96-well plate, supplemented with 10% fetal bovine serum and 1% P/S, and the culture environment was 37° C. and 5% CO2. Compound concentrations were ranged from 4.5 nM to 30 μM. The stock solution of the test compound was dissolved in DMSO and added to the medium at the indicated concentration, and incubated for 72 hours. Negative control cells were treated with vehicle only. In some experiments, known ATR inhibitors were added as positive controls. Cell viability was evaluated using the Cell titer glo kit (CTG, Promega) under the instructions of the product specification. The data were analyzed using Graphpad software, and IC50 values and compound fitting curves were obtained (Table 2).

ATR/ATRIP kinase = ATR/ATRIP kinase (Homo sapiens (Human), UniProt Q13535); assay: ATR enzyme assay (HTRF, phosphorylation of substrate protein P53); format: biochemical; conditions: substrate P53, TR-FRET
Procedure: In this experiment, the phosphorylation level of substrate protein P53 (Eurofins, 14-952) was detected by HTRF technology to measure the activity of ATR/ATRIP (Eurofins, 14-953) kinase. Reaction buffer (25 mM HEPES pH 8.0, 0.01% Brij-35, 1% Glycerol, 5 mM DTT, 1 mg/mL BSA), termination buffer (12.5 mM HEPES pH 8.0, 0.005% Brij-35, 0.5% Glycerol, 250 mM EDTA) and assay buffer (50 mM HEPES pH 7.0, 150 mM NaCl, 267 mM KF, 0.1% sodium cholate, 0.01% Tween 20) were prepared in advance. ATR/ATRIP was diluted with reaction buffer to a working solution of 2 ng/μL, and the substrate protein P53 was diluted with reaction buffer to a working solution of 80 nM, and 4 nM of ATP (Sigma, A2383) working solution (containing 40 mM MnCl2) was prepared with reaction buffer. The compound was 3-fold diluted with DMSO, then diluted with reaction buffer into a working solution, then added to a 384-well plate at 2.5 μL/well, and centrifuged at 1500 rpm for 40 s. Then 2.5 μL of ATR/ATRIP working solution, P53 working solution and ATP working solution were added into the 384-well plate, centrifuged at 1500 rpm for 40 s and reacted at room temperature for 30 minutes. After the reaction was completed, 5 μL of termination buffer was added to each well, and centrifuged at 1500 rpm for 40 s. Antibody working solution containing 0.083 μg/mL anti-phospho-p53 (Ser15)-K (CisBio, cat. 61P08KAE) and 5 μg/mL anti-GST-d2 (CisBio, cat. 61GSTDLA) was prepared with assay buffer and added to the 384-well plate at 5 μL/well, then centrifuged at 1500 rpm for 40 s and reacted overnight at room temperature. Microplate reader (Tecan, Infinite M1000 Pro) was used to detect TR-FRET, and the data were analyzed with Graphpad software, and the four-parameter equation was used to fit the curve and calculate the IC50 value of the inhibitor (Table 1).

[2] = tested on: OCI-LY19 human B-cell lymphoma; assay: In vivo drug efficacy, OCI-LY19 human B-cell lymphoma mouse subcutaneous xenograft tumor model; conditions: Group 2, 20 mg/kg p.o. once a day
Procedure: Cell culture: Human B-cell lymphoma OCI-LY19 cells were maintained as a monolayer in MEM-α medium containing 10% fetal bovine serum in a constant temperature incubator at 37° C. with 5% CO2. Tumor cells were subcultured twice a week. Cells in exponential growth phase were harvested and counted for inoculation.
Experimental animals: BALB/c nude mice, 6-8 weeks old, 19-22 g, purchased from Beijing Vital River Laboratory Animal Technology Co., Ltd.
For Vehicle, positive control (AZD6738, CAS number: 1352226-88-0) and compound 2, a total of 6 experimental groups were set up, as shown in Table 5 below:
Experimental method: The OCI-LY19 cell line (3.0×10^6 cells/mouse) was inoculated subcutaneously on the right back of the experimental mouse, and the inoculation volume of each mouse was 0.1 mL, and the growth of tumors was observed regularly, and until the tumor grew to about 100 mm^3, the mice were randomly divided into groups according to the tumor size and body weight, and administered according to the administration plan shown in Table 5, and the mouse body weight and tumor size were measured twice a week during the whole experiment.
tumor volume (mm^3)=0.5×(tumor long diameter×tumor short diameter^2). Tumor size calculation formula: […]

Sequence of ATR/ATRIP kinase (Q13535 whole entry): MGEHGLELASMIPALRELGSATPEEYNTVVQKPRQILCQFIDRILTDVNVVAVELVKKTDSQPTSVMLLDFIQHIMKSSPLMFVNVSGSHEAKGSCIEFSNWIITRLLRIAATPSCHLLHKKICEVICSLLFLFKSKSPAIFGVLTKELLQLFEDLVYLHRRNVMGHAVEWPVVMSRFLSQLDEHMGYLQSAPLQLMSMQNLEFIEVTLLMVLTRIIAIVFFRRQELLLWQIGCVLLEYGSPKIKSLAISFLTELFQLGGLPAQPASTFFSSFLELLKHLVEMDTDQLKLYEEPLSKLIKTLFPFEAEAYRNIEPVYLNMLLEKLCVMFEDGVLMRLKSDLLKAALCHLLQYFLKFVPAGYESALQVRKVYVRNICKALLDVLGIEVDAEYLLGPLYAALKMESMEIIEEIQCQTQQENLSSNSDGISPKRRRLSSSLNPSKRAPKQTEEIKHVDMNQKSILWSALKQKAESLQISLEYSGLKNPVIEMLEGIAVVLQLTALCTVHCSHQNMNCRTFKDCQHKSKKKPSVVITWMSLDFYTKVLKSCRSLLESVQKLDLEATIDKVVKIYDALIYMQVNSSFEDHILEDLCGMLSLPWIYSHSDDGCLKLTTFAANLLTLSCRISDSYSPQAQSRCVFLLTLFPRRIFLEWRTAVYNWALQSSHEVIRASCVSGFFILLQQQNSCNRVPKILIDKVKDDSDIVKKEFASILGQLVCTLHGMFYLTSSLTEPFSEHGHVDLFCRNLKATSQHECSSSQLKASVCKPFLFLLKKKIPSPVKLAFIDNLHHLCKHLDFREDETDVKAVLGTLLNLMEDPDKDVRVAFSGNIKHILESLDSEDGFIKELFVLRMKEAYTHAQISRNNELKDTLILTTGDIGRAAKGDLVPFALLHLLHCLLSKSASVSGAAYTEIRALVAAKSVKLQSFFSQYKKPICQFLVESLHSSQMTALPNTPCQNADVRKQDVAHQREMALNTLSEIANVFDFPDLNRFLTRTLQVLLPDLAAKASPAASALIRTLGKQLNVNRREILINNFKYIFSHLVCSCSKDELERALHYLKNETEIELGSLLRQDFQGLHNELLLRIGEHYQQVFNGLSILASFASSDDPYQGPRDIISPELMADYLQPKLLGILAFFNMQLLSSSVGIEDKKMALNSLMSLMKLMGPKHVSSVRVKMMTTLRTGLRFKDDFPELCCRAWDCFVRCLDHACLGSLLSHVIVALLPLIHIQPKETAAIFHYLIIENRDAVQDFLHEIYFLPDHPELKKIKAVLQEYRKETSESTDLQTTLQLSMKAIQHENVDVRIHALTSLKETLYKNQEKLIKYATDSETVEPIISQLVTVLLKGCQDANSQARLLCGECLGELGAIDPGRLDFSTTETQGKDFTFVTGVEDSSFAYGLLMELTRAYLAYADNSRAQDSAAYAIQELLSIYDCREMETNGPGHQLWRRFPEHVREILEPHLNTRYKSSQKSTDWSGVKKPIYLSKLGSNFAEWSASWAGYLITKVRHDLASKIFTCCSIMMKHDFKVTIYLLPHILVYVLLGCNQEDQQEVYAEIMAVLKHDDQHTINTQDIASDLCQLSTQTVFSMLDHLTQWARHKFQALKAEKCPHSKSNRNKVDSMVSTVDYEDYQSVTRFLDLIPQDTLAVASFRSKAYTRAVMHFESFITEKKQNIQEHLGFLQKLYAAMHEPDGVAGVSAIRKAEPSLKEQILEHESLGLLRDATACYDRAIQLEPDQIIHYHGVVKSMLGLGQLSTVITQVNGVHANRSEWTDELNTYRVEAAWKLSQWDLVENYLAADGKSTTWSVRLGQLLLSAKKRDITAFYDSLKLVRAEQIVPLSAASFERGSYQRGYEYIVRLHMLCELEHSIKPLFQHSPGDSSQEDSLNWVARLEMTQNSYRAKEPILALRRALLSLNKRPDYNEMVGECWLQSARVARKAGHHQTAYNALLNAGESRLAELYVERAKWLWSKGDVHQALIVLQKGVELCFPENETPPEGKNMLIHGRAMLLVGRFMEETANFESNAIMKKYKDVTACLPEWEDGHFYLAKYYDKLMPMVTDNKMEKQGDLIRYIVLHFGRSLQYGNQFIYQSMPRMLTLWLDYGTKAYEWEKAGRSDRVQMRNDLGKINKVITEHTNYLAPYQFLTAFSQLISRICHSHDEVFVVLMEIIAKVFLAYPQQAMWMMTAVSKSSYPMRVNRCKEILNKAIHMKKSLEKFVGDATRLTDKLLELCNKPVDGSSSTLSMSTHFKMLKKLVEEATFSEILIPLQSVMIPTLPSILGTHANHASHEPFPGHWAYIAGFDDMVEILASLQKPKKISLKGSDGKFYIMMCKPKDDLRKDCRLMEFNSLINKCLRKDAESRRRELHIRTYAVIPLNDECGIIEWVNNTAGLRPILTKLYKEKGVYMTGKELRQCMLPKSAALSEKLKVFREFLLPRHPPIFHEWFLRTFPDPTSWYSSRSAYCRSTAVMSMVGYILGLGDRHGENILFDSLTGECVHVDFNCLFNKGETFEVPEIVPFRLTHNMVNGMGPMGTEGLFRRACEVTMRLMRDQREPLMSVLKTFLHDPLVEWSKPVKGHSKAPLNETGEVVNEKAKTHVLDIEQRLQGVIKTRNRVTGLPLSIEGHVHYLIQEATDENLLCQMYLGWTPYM
Sequence of ATR/ATRIP kinase (Q8WXE1 whole entry partner): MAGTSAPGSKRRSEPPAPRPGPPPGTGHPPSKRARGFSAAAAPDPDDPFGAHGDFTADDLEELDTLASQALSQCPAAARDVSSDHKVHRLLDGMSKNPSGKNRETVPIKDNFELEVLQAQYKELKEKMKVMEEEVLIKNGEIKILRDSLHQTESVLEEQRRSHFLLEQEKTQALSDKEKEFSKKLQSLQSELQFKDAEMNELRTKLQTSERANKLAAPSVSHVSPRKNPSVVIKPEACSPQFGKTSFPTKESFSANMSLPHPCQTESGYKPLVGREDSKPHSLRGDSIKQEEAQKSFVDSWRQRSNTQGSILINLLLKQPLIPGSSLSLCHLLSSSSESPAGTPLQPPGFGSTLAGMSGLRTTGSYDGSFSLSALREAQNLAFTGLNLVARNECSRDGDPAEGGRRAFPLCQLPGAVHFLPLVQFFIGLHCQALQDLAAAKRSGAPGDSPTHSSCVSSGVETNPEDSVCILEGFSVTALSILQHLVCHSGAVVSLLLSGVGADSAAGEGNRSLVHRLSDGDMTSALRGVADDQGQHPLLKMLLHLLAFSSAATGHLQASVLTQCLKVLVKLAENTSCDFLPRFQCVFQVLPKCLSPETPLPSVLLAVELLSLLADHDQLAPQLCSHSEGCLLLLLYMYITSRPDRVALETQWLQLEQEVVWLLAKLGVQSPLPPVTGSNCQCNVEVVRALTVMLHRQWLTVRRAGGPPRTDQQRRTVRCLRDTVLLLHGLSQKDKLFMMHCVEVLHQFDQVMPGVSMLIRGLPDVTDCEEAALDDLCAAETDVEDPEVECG

Row | SMILES | IC50 [1] [µM] | IC50 (ATR/ATRIP kinase) [µM] | further results
1 | C[C@@H]1COCCN1c1nc2c(-c3cc[nH]n3)nccc2c2c1ccn2S(C)(=O)=O [Compound 8, (R)-3-methyl-4-(1-(methylsulfonyl)-6-(1H-pyrazol-3-yl)-1H-pyrrolo[3,2-c][1,7]naphthyridin-4-yl)morpholine] | 0.0323 | 0.04 | 
2 | C[C@@H]1COCCN1c1nc2c(cnn2-c2cc[nH]n2)c2c1CCN2S(=O)(=O)C(F)(F)F [Compound 6, (R)-4-(6-(1H-pyrazol-3-yl)-1-((trifluoromethyl)sulfonyl)-1,2,3,6-tetrahydropyrazolo[3,4-b]pyrrolo[2,3-d]pyridin-4-yl)-3-methylmorpholine trifluoroacetate] | 0.0796 | 0.0048 | 
3 | C[C@@H]1COCCN1c1cc(C2([S@](C)(=N)=O)CC2)nc(-c2cc[nH]c3nccc2-3)n1 [AZD6738, reference compound] |  |  | T/C (%) [2]: 31.2%; TGI (%) [2]: 72.1%; Tumor volume (10 days, mm^3) ([2]; 10 days): 108.23 ± 4.67 mm^3; Tumor volume (24 days, mm^3) ([2]; 24 days): 738.65 ± 257.29 mm^3
4 | C[C@@H]1COCCN1c1nc2c(cnn2-c2cc[nH]n2)c2c1CCN2S(=O)(=O)N(C)C [Compound 4, (R)—N,N-dimethyl-4-(3-methylmorpholino)-6-(1H-pyrazol-3-yl)-2,3-dihydropyrazolo[3,4-b]pyrrolo[2,3-d]pyridine-1(6H)-sulfonamide trifluoroacetate] |  | 0.0018 | 
5 | C[C@@H]1COCCN1c1nc2c(c(C#N)nn2-c2cc[nH]n2)c2c1CCN2S(C)(=O)=O [Compound 7, (R)-4-(3-methylmorpholinyl)-1-(methylsulfonyl)-6-(1H-pyrazol-3-yl)-1,2,3,6-tetrahydropyrazolo[3,4-b]pyrrolo[2,3-d]pyridine-8-carbonitrile] | 0.406 | 0.046 | 

The next lines start with results.

Row | IC50 [1] [µM] | IC50 (ATR/ATRIP kinase) [µM] | SMILES | further results
6 | 0.072 | 0.0059 | C[C@@H]1COCCN1c1nc2c(cnn2-c2cc[nH]n2)c2c1CCN2C1CC1 [Compound 11, (R)-4-(1-cyclopropyl-6-(1H-pyrazol-3-yl)-1,2,3,6-tetrahydropyrazolo[3,4-b]pyrrolo[2,3-d]pyridin-4-yl)-3-methylmorpholine] | 
7 |  | 0.0075 | C[C@@H]1COCCN1c1nc2c(cnn2-c2cc[nH]n2)c2c1CCN2c1cccnc1 [Compound 13, (R)-4-(6-(1H-pyrazol-3-yl)-1-(pyridin-3-yl)-1,2,3,6-tetrahydropyrazolo[3,4-b]pyrrolo[2,3-d]pyridin-4-yl)-3-methylmorpholine trifluoroacetate] | 
8 | 0.262 |  | C[C@@H]1COCCN1c1nc2c(cnn2-c2cc[nH]n2)c2c1CCN2S(N)(=O)=O [Compound 5, (R)-4-(3-methylmorpholine)-6-(1H-pyrazol-3-yl)-2,3-dihydropyrazolo[3,4-b]pyrrolo[2,3-d]pyridine-1(6H)-sulfonamide] | 
9 | 0.0937 |  | C[C@@H]1COCCN1c1nc2c(cnn2-c2cc[nH]n2)c2c1CCN2C [Compound 12, (R)-3-methyl-4-(1-methyl-6-(1H-pyrazol-3-yl)-tetrahydropyrazolo[3,4-b]pyrrolo[2,3-d]pyridin-4-yl)morpholine] | 
